From patent US20050142581A1, “Microrna as ligands and target molecules” (priority 2003, published 2005)
Oligonucleotides are written 5' to 3', each unit as a sugar letter and its base; * is a phosphorothioate linkage, no mark a phosphodiester; rarer units and linkages stand in square brackets, end groups in braces. Plain capitals give the bases only. e = 2'-O-(2-methoxyethyl) (MOE); [5mC] = 5-methylcytosine; d = 2'-deoxy (DNA)

tested on: human CD40 mRNA; experiment: Inhibition of CD40 mRNA levels by oligonucleotides (real-time RT-PCR); assay type: cell-based; design: concentration or dose not given beside the values; settings: 2'-MOE gapmers, 18 nucleotides, phosphorothioate throughout; averaged from three experiments
Procedure, shortened: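 Cells at ~80% confluency were transfected with oligonucleotide at 150 nM final using Lipofectin 3.75 μg/ml for 4 h and harvested 16 h after treatment. Poly(A)+ mRNA was taken for TaqMan real-time RT-PCR of CD40, and percent inhibition was derived from a standard curve of untreated control mRNA.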

Substance	% Inhibition (Inhibition of CD40 mRNA Levels by Chimeric Phosphorothioate Oligonucleotides) [%]
19272 (e[5mC]*eT*eG*eG*dG*dG*dA*dC*dC*dA*dC*dA*dG*dA*e[5mC]*eA*eA*e[5mC]; antisense) [compound 19272]	9.04
19268 (e[5mC]*eT*eG*eT*dT*dG*dC*dA*dC*dA*dA*dC*dC*dA*eG*eG*eT*e[5mC]; antisense) [compound 19268]	82.32
19212 (DNA eG*eA*e[5mC]*e[5mC]*dA*dG*dG*dC*dG*dG*dC*dA*dG*dG*eA*e[5mC]*e[5mC]*eA; antisense) [compound 19212]	77.23
19218 (DNA eG*eA*e[5mC]*eA*dG*dC*dG*dG*dT*dC*dA*dG*dC*dA*eA*eG*e[5mC]*eA; antisense) [compound 19218]	67.21
19259 (antisense eG*eA*e[5mC]*eT*dG*dG*dG*dC*dA*dG*dG*dG*dC*dT*e[5mC]*eG*e[5mC]*eA) [compound 19259]	82.00
19246 (antisense eT*eT*e[5mC]*eA*dC*dA*dG*dG*dT*dG*dC*dA*dG*dA*eT*eG*eG*eT) [compound 19246]	47.72
19286 (eG*eT*eA*eA*dA*dG*dT*dC*dT*dC*dC*dT*dG*dC*eA*e[5mC]*eT*eG; antisense) [compound 19286]	30.62
19256 (antisense eG*e[5mC]*eT*e[5mC]*dG*dC*dA*dG*dA*dT*dG*dG*dT*dA*eT*e[5mC]*eA*eG) [compound 19256]	64.65
19222 (antisense eG*eT*eG*eG*dG*dT*dG*dG*dT*dT*dC*dT*dG*dG*eA*eT*eG*eG) [compound 19222]	57.79
19271 (e[5mC]*e[5mC]*eA*e[5mC]*dA*dG*dA*dC*dA*dA*dC*dA*dT*dC*eA*eG*eT*e[5mC]; antisense) [compound 19271]	11.22
19214 (DNA e[5mC]*eA*eG*eA*dG*dG*dC*dA*dG*dA*dC*dG*dA*dA*e[5mC]*e[5mC]*eA*eT; antisense) [compound 19214]	23.68
19266 (eT*eT*eG*eG*dT*dC*dT*dC*dA*dC*dA*dG*dC*dT*eT*eG*eT*e[5mC]; antisense) [compound 19266]	45.92
19292 (eA*eA*e[5mC]*eT*dG*dC*dC*dT*dG*dT*dT*dT*dG*dC*e[5mC]*e[5mC]*eA*e[5mC]; antisense) [compound 19292]	63.34
19244 (antisense eT*eG*eG*eT*dG*dT*dC*dT*dG*dT*dT*dT*dC*dT*eG*eA*eG*eG) [compound 19244]	42.83
19288 (e[5mC]*eG*eG*eT*dT*dG*dG*dC*dA*dT*dC*dC*dA*dT*eG*eT*eA*eA; antisense) [compound 19288]	34.49
19293 (e[5mC]*eT*eT*e[5mC]*dT*dG*dC*dC*dT*dG*dC*dA*dC*dC*e[5mC]*e[5mC]*eT*eG; antisense) [compound 19293]	0.00
19280 (eG*eG*eG*eT*dT*dC*dC*dT*dG*dC*dT*dT*dG*dG*eG*eG*eT*eG; antisense) [compound 19280]	13.95
19239 (antisense eG*eG*eT*eT*dG*dG*dG*dG*dT*dC*dG*dC*dA*dG*eT*eA*eT*eT) [compound 19239]	19.40
19282 (eG*eA*eT*e[5mC]*dG*dT*dC*dG*dG*dG*dA*dA*dA*dA*eT*eT*eG*eA; antisense) [compound 19282]	0.00
19234 (antisense eG*eA*eA*eG*dG*dC*dA*dT*dT*dC*dC*dG*dT*dT*eT*e[5mC]*eA*eG) [compound 19234]	32.21
19213 (DNA eA*eG*eG*eT*dG*dA*dG*dA*dC*dC*dA*dG*dG*dC*eG*eG*e[5mC]*eA; antisense) [compound 19213]	80.82
19231 (antisense eA*e[5mC]*eT*e[5mC]*dT*dG*dT*dG*dC*dA*dG*dT*dC*dA*e[5mC]*eT*e[5mC]*eA) [compound 19231]	37.59

same assay, conditions: oligodeoxynucleotides with phosphorothioate backbones throughout; averages from three experiments

Substance	% INHIB. (Inhibition of CD40 mRNA Levels by Phosphorothioate Oligodeoxynucleotides) [%]
18669 (DNA dG*dC*dA*dG*dG*dG*dC*dT*dC*dG*dC*dA*dG*dA*dT*dG*dG*dT; antisense) [compound 18669]	34.05
18656 (DNA dT*dG*dG*dT*dG*dT*dC*dT*dG*dT*dT*dT*dC*dT*dG*dA*dG*dG; antisense) [compound 18656]	0.00
18697 (DNA dT*dG*dG*dA*dG*dC*dA*dG*dC*dA*dG*dT*dG*dT*dT*dG*dG*dA; antisense) [compound 18697]	0.00
18634 (DNA dG*dT*dG*dG*dG*dT*dG*dG*dT*dT*dC*dT*dG*dG*dA*dT*dG*dG; antisense) [compound 18634]	0.00
18625 (DNA dA*dG*dG*dT*dG*dA*dG*dA*dC*dC*dA*dG*dG*dC*dG*dG*dC*dA; antisense) [compound 18625]	21.89
18640 (DNA dC*dT*dC*dA*dC*dC*dA*dG*dT*dT*dT*dC*dT*dG*dT*dC*dC*dT; antisense) [compound 18640]	0.00
18648 (DNA dC*dT*dC*dT*dG*dT*dT*dC*dC*dA*dG*dG*dT*dG*dT*dC*dT*dA; antisense) [compound 18648]	0.00
18630 (DNA dG*dA*dC*dA*dG*dC*dG*dG*dT*dC*dA*dG*dC*dA*dA*dG*dC*dA; antisense) [compound 18630]	0.00
18679 (DNA dC*dA*dG*dG*dT*dC*dT*dT*dT*dG*dG*dT*dC*dT*dC*dA*dC*dA; antisense) [compound 18679]	6.98
18667 (DNA dG*dT*dA*dT*dC*dA*dG*dA*dA*dA*dC*dC*dC*dC*dT*dG*dT*dA; antisense) [compound 18667]	0.00
18706 (DNA dA*dC*dT*dG*dA*dC*dT*dG*dG*dG*dC*dA*dT*dA*dG*dC*dT*dC; antisense) [compound 18706]	0.00
18645 (DNA dA*dT*dT*dC*dC*dG*dT*dT*dT*dC*dA*dG*dT*dG*dA*dA*dC*dT; antisense) [compound 18645]	0.00
18633 (DNA dG*dG*dT*dG*dG*dT*dT*dC*dT*dG*dG*dA*dT*dG*dG*dA*dC*dA; antisense) [compound 18633]	0.00
18650 (DNA dT*dG*dG*dG*dG*dT*dC*dG*dC*dA*dG*dT*dA*dT*dT*dT*dG*dT; antisense) [compound 18650]	0.00
18690 (DNA dT*dT*dT*dT*dG*dA*dT*dA*dA*dA*dG*dA*dC*dC*dA*dG*dC*dA; antisense) [compound 18690]	0.00
18681 (DNA dG*dT*dT*dT*dG*dT*dG*dC*dC*dT*dG*dC*dC*dT*dG*dT*dT*dG; antisense) [compound 18681]	2.43
18637 (DNA dC*dT*dG*dG*dC*dA*dC*dA*dA*dA*dG*dA*dA*dC*dA*dG*dC*dA; antisense) [compound 18637]	0.00
18676 (DNA dG*dT*dC*dC*dA*dA*dG*dG*dG*dT*dG*dA*dC*dA*dT*dT*dT*dT; antisense) [compound 18676]	8.01
18642 (DNA dG*dT*dG*dC*dA*dG*dT*dC*dA*dC*dT*dC*dA*dC*dC*dA*dG*dT; antisense) [compound 18642]	0.00
18627 (DNA dG*dC*dA*dG*dA*dG*dG*dC*dA*dG*dA*dC*dG*dA*dA*dC*dC*dA; antisense) [compound 18627]	0.00
18674 (DNA dG*dC*dA*dG*dA*dT*dG*dA*dC*dA*dC*dA*dT*dT*dG*dG*dA*dG; antisense) [compound 18674]	0.00
18638 (DNA dT*dC*dC*dT*dG*dG*dC*dT*dG*dG*dC*dA*dC*dA*dA*dA*dG*dA; antisense) [compound 18638]	0.00
18631 (DNA dG*dA*dT*dG*dG*dA*dC*dA*dG*dC*dG*dG*dT*dC*dA*dG*dC*dA; antisense) [compound 18631]	0.00
